Experimental data as given in ChEMBL document CHEMBL1125304, “Synthesis and antitumor activity of 3- and 5-hydroxy-4-methylpyridine-2-carboxaldehyde thiosemicarbazones” (1992).

Legend:
[1] = system: Mus musculus; test: Ratio of the survival time of treated to control mice bearing the L1210 leukemia after intraperitoneal administration of the 40 mg/kg compound in the DMSO solution form
[2] = system: Mus musculus; test: Average weight change of mice bearing the L1210 leukemia (24 hr after tumor implantation) after intraperitoneal administration of the 40 mg/kg compound in the DMSO solution form
[3] = system: Mus musculus; test: Ratio of the survival time of treated to control mice bearing the L1210 leukemia after intraperitoneal administration of the 50 mg/kg compound in the suspension form
[4] = system: Mus musculus; test: Average weight change of mice bearing the L1210 leukemia (24 hr after tumor implantation) after intraperitoneal administration of the 50 mg/kg compound in the suspension form
[5] = system: Mus musculus; test: Ratio of the survival time of treated to control mice bearing the L1210 leukemia after intraperitoneal administration of the 40 mg/kg compound in the suspension form
[6] = system: Mus musculus; test: Average weight change of mice bearing the L1210 leukemia (24 hr after tumor implantation) after intraperitoneal administration of the 40 mg/kg compound in the suspension form

Structure (SMILES)	T/C [1]	Average weight change [2]	T/C [3]	Average weight change [4]	T/C [5]	Average weight change [6]
N/C(S)=N/N=C/c1ccc(O)cn1	132%	1.8%	–	–	–	–
Cc1ccnc(/C=N/N=C(/N)S)c1O	135%	0.5%	168%	0.9%	–	–
N/C(S)=N/N=C/c1ncccc1O	114%	1.5%	–	–	–	–
Cc1cc(/C=N/N=C(/N)S)ncc1O	138%	-7.4%	–	–	186%	-3.4%
